Among the data in US20250171459A1, “2-METHYL-4',5'-DIHYDROSPIRO[PIPERIDINE-4,7'-THIENO[2,3-C]PYRAN] DERIVATIVES AS INHIBITORS OF APOL1 AND METHODS OF USING SAME” (Vertex Pharmaceuticals Incorporated, priority 2022, published 2025) are IC50 values, retold here.

In this test the target is T1, APOL1 (Homo sapiens, UniProt O14791).
T1 sequence (O14791 1-398 S342G/I384M): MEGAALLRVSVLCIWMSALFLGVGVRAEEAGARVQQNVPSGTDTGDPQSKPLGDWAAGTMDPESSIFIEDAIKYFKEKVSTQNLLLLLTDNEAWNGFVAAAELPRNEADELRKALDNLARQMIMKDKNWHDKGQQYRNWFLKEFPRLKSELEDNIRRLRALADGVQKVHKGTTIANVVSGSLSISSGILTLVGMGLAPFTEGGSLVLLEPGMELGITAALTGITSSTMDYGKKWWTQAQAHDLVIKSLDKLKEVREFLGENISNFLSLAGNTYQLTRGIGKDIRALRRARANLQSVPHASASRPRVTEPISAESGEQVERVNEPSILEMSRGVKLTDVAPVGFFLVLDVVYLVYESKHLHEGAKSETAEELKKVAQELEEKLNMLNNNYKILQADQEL
Description: MultiTox-Fluor Multiplex Cytotoxicity Assay in tet-inducible APOL1 T-REx-HEK293 cells (cell rescue, ratio of dead to live cells). The class given is cell-based. To be noted: tet-inducible transgenic APOL1 T-REx-HEK293 cell lines, 50 ng/mL tet, 24 hours; read-out: IP50 (i.e., IC50 for cell proliferation). The procedure, abridged:
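T-REx-HEK293 cells with tet-inducible APOL1 were treated with compound (10 μM top, 10-point 3-fold dilution, duplicate) plus 50 ng/mL tetracycline for 24 h at 37° C, in DMEM with 2% tet-free FBS. MultiTox-Fluor protease signals gave a dead/live ratio, normalized to no tet (100% viability) and tet alone (0%).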

For the compound `CCc1cc2c(s1)CCO[C@@]21CCN(C[C@H]2C[C@@H](NC(=O)CCN3CCCCC3)C2)[C@@H](C)C1` [Compound 322], the IC50 is 100 to 500 nM. Take `CCc1cc2c(s1)CCO[C@@]21CCN(C[C@H]2C[C@@H](NC(=O)C3CC3c3ccc(F)cc3)C2)[C@@H](C)C1` (stereo partly shown) [Compound 323]: the IC50 was less than 100 nM. In the case of `CCc1cc2c(s1)CCO[C@@]21CCN(C[C@H]2C[C@@H](NC(=O)c3ccnc(C)n3)C2)[C@@H](C)C1` [Compound 324] it was less than 100 nM. With `CCc1cc2c(s1)CCO[C@@]21CCN(C[C@H]2C[C@@H](NC(=O)C3CCC3(F)F)C2)[C@@H](C)C1` (stereo partly shown) [Compound 325], the IC50 was less than 100 nM.

Take `CCc1cc2c(s1)CCO[C@@]21CCN(C[C@H]2C[C@@H](NC(=O)c3cc(C)[nH]n3)C2)[C@@H](C)C1` [Compound 326]: the IC50 is less than 100 nM. The value for `CCc1cc2c(s1)CCO[C@@]21CCN(C[C@H]2C[C@@H](NC(=O)C3(c4ccc(F)cn4)CC3)C2)[C@@H](C)C1` [Compound 327] was 100 to 500 nM; that for `CCc1cc2c(s1)CCO[C@@]21CCN(C[C@H]2C[C@@H](NC(=O)c3ccc(C)nn3)C2)[C@@H](C)C1` [Compound 328] was 100 to 500 nM; that for `CCc1cc2c(s1)CCO[C@@]21CCN(C[C@H]2C[C@@H](NC(=O)c3cnc(C)nc3)C2)[C@@H](C)C1` [Compound 329] was 100 to 500 nM. The value for `CCc1cc2c(s1)CCO[C@@]21CCN(C[C@H]2C[C@@H](NC(=O)C3(O)CCC3)C2)[C@@H](C)C1` [Compound 330] was less than 100 nM; that for `CCc1cc2c(s1)CCO[C@@]21CCN(C[C@H]2C[C@@H](NC(=O)C3CC(C(F)(F)F)C3)C2)[C@@H](C)C1` (stereo partly shown) [Compound 331] was 100 to 500 nM.

Turning to `CCc1cc2c(s1)CCO[C@@]21CCN(C[C@H]2C[C@@H](NC(=O)C(O)C3CC3)C2)[C@@H](C)C1` (stereo partly shown) [Compound 333], the IC50 is less than 100 nM. In the case of `CCc1cc2c(s1)CCO[C@@]21CCN(C[C@H]2C[C@@H](NC(=O)CC#N)C2)[C@@H](C)C1` [Compound 334] it was 100 to 500 nM; in that of `CCc1cc2c(s1)CCO[C@@]21CCN(C[C@H]2C[C@@H](NC(=O)C3(O)CC3)C2)[C@@H](C)C1` [Compound 335], less than 100 nM; in that of `CCc1cc2c(s1)CCO[C@@]21CCN(C[C@H]2C[C@@H](NC(=O)C(C)(C)C#N)C2)[C@@H](C)C1` [Compound 336], 100 to 500 nM. Turning to `CCc1cc2c(s1)CCO[C@@]21CCN(C[C@H]2C[C@@H](NC(=O)CN3CCc4ccccc43)C2)[C@@H](C)C1` [Compound 337], the IC50 was less than 100 nM.

As to `CCc1cc2c(s1)CCO[C@@]21CCN(C[C@H]2C[C@@H](NC(=O)CC3CC(F)(F)C3)C2)[C@@H](C)C1` [Compound 338], the IC50 was less than 100 nM. Take `CCc1cc2c(s1)CCO[C@@]21CCN(C[C@H]2C[C@@H](NC(=O)C(O)C(F)(F)F)C2)[C@@H](C)C1` (stereo partly shown) [Compound 339]: the IC50 is less than 100 nM.

For `CCc1cc2c(s1)CCO[C@@]21CCN(C[C@H]2C[C@@H](NC(=O)c3ccncc3C)C2)[C@@H](C)C1` [Compound 340], the IC50 is less than 100 nM. In the case of `CCc1cc2c(s1)CCO[C@@]21CCN(C[C@H]2C[C@@H](NC(=O)C(C)S(C)(=O)=O)C2)[C@@H](C)C1` (stereo partly shown) [Compound 341] it was less than 100 nM. Regarding `CCc1cc2c(s1)CCO[C@@]21CCN(C[C@H]2C[C@@H](NC(=O)CS(=O)(=O)NC)C2)[C@@H](C)C1` [Compound 342], the IC50 was less than 100 nM. Consider `CCc1cc2c(s1)CCO[C@@]21CCN(C[C@H]2C[C@@H](NC(=O)CS(C)(=O)=O)C2)[C@@H](C)C1` [Compound 343], for which the IC50 was less than 100 nM. For the compound `CCc1cc2c(s1)CCO[C@@]21CCN(C[C@H]2C[C@@H](NC(=O)C3CC(C)(O)C3)C2)[C@@H](C)C1` (stereo partly shown) [Compound 344], the IC50 is less than 100 nM.

For `CCc1cc2c(s1)CCO[C@@]21CCN(C[C@H]2C[C@@H](NC(=O)c3ncccc3O)C2)[C@@H](C)C1` [Compound 345], the IC50 fell in the range of 100 to 500 nM. The value for `CCc1cc2c(s1)CCO[C@@]21CCN(C[C@H]2C[C@@H](NC(=O)CC(C)(C)O)C2)[C@@H](C)C1` [Compound 346] was less than 100 nM; that for `CCc1cc2c(s1)CCO[C@@]21CCN(C[C@H]2C[C@@H](NC(=O)c3nnc(C)o3)C2)[C@@H](C)C1` [Compound 347] was 100 to 500 nM. Regarding `CCc1cc2c(s1)CCO[C@@]21CCN(C[C@H]2C[C@@H](NC(=O)COC)C2)[C@@H](C)C1` [Compound 348], the IC50 fell in the range of 100 to 500 nM. `CCc1cc2c(s1)CCO[C@@]21CCN(C[C@H]2C[C@@H](NC(=O)c3ccc(=O)[nH]n3)C2)[C@@H](C)C1` [Compound 349]: the IC50 was less than 100 nM. In the case of `CCc1cc2c(s1)CCO[C@@]21CCN(C[C@H]2C[C@@H](NC(=O)C3(C(N)=O)CC3)C2)[C@@H](C)C1` [Compound 350] it was 100 to 500 nM; in that of `CCc1cc2c(s1)CCO[C@@]21CCN(C[C@H]2C[C@@H](NC(=O)CO)C2)[C@@H](C)C1` [Compound 351], 100 to 500 nM.

Turning to `CCc1cc2c(s1)CCO[C@@]21CCN(C[C@H]2C[C@@H](NC(=O)CC3CS(=O)(=O)C3)C2)[C@@H](C)C1` [Compound 352], the IC50 is less than 100 nM. As for `CCc1cc2c(s1)CCO[C@@]21CCN(C[C@H]2C[C@@H](NC(=O)CNS(=O)(=O)CC)C2)[C@@H](C)C1` [Compound 353], the IC50 was less than 100 nM. The value for `CCc1cc2c(s1)CCO[C@@]21CCN(C[C@H]2C[C@@H](NC(=O)Cn3cncn3)C2)[C@@H](C)C1` [Compound 354] was 100 to 500 nM. On to `CCc1cc2c(s1)CCO[C@@]21CCN(C[C@H]2C[C@@H](NC(=O)C3CCN(C(C)=O)CC3)C2)[C@@H](C)C1` [Compound 355], for which the IC50 is less than 100 nM.

With `CCc1cc2c(s1)CCO[C@@]21CCN(C[C@H]2C[C@@H](NC(=O)CCS(C)(=O)=O)C2)[C@@H](C)C1` [Compound 356], the IC50 was less than 100 nM.

For `CCc1cc2c(s1)CCO[C@@]21CCN(C[C@H]2C[C@@H](NC(=O)C3(O)CC(O)C3)C2)[C@@H](C)C1` (stereo partly shown) [Compound 357], the IC50 is less than 100 nM. For the compound `CCc1cc2c(s1)CCO[C@@]21CCN(C[C@H]2C[C@@H](NC(=O)c3ccc4[nH]nnc4c3)C2)[C@@H](C)C1` [Compound 358], the IC50 is less than 100 nM. The value for `CCc1cc2c(s1)CCO[C@@]21CCN(C[C@H]2C[C@@H](NC(=O)C3(C)COC3)C2)[C@@H](C)C1` [Compound 359] was 100 to 500 nM; that for `CCc1cc2c(s1)CCO[C@@]21CCN(C[C@H]2C[C@@H](NC(=O)C(C)(C)N)C2)[C@@H](C)C1` [Compound 360] was 100 to 500 nM.

Turning to `CCc1cc2c(s1)CCO[C@@]21CCN(C[C@H]2C[C@@H](NC(=O)C3CNC(=O)O3)C2)[C@@H](C)C1` (stereo partly shown) [Compound 361], the IC50 lay in the range of 100 to 500 nM. On to `CCc1cc2c(s1)CCO[C@@]21CCN(C[C@H]2C[C@@H](NC(=O)C3CC(=O)N(C)C3)C2)[C@@H](C)C1` (stereo partly shown) [Compound 362], for which the IC50 lay within 100 to 500 nM. The value for `CCc1cc2c(s1)CCO[C@@]21CCN(C[C@H]2C[C@@H](NC(=O)c3cc(CO)n[nH]3)C2)[C@@H](C)C1` [Compound 363] was less than 100 nM; that for `CCc1cc2c(s1)CCO[C@@]21CCN(C[C@H]2C[C@@H](NC(=O)CNS(C)(=O)=O)C2)[C@@H](C)C1` [Compound 364] was 100 to 500 nM; that for `CCc1cc2c(s1)CCO[C@@]21CCN(C[C@H]2C[C@@H](NC(=O)C(O)CO)C2)[C@@H](C)C1` (stereo partly shown) [Compound 365] was 100 to 500 nM. The value for `CCc1cc2c(s1)CCO[C@@]21CCN(C[C@H]2C[C@@H](NC(=O)CCN3CCCC3=O)C2)[C@@H](C)C1` [Compound 366] was 100 to 500 nM; that for `CCc1cc2c(s1)CCO[C@@]21CCN(C[C@H]2C[C@@H](NC(=O)C3CC3C(=O)N(C)C)C2)[C@@H](C)C1` (stereo partly shown) [Compound 367] was 100 to 500 nM. In the case of `CCc1cc2c(s1)CCO[C@@]21CCN(C[C@H]2C[C@@H](NC(=O)[C@H]3CCCO3)C2)[C@@H](C)C1` [Compound 368] it was 100 to 500 nM; in that of `CCc1cc2c(s1)CCO[C@@]21CCN(C[C@H]2C[C@@H](NC(=O)[C@@H]3CCCO3)C2)[C@@H](C)C1` [Compound 369], 100 to 500 nM. On to `CCc1cc2c(s1)CCO[C@@]21CCN(C[C@H]2C[C@@H](NC(=O)C(C)(O)C(F)(F)F)C2)[C@@H](C)C1` (stereo partly shown) [Compound 370], for which the IC50 fell in the range of 100 to 500 nM. As for `CCCOC(=O)N[C@H]1C[C@@H](CN2CC[C@]3(C[C@@H]2C)OCCc2sc(CC)cc23)C1` [Compound 371], the IC50 is less than 100 nM. In the case of `CCc1cc2c(s1)CCO[C@@]21CCN(C[C@H]2C[C@@H](NC(=O)Oc3ccccc3F)C2)[C@@H](C)C1` [Compound 372] it was 500 to 1000 nM; in that of `CCc1cc2c(s1)CCO[C@@]21CCN(C[C@H]2C[C@@H](NC(=O)OCC(C)C)C2)[C@@H](C)C1` [Compound 373], 100 to 500 nM; in that of `CCc1cc2c(s1)CCO[C@@]21CCN(C[C@H]2C[C@@H](NC(=O)OCCOC)C2)[C@@H](C)C1` [Compound 374], 100 to 500 nM. With `CCOC(=O)N[C@H]1C[C@@H](CN2CC[C@]3(C[C@@H]2C)OCCc2sc(CC)cc23)C1` [Compound 375], the IC50 is less than 100 nM. Turning to `CCc1cc2c(s1)CCO[C@@]21CCN(C[C@H]2C[C@@H](NC(=O)OC(C)C)C2)[C@@H](C)C1` [Compound 376], the IC50 is less than 100 nM. As for `CCc1cc2c(s1)CCO[C@@]21CCN(C[C@H]2C[C@@H](NC(=O)Oc3ccc(F)cc3)C2)[C@@H](C)C1` [Compound 377], the IC50 was less than 100 nM.
